Assay results from the supplement of paper PMC8253809.

Columns and labels:
SUDIPGXIII [1] = diffuse intrinsic pontine glioma line; test: EC50 (inflection of fitted growth-inhibition curve) (log10 M)
Procedure, shortened: (§1)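 Patient-derived pHGG/DIPG cell lines and astrocyte controls were grown on 1% Geltrex-coated 384-well plates and exposed by pin tool to a 10-point threefold dilution series (mean top concentration 35 μM), in triplicate. Exposure was 7 days (iAstro 3 days) at 37 °C, 5% CO2. CellTiter-Glo luminescence was log2-transformed, normalised per plate to % activity between negative (solvent) and positive control wells, and pooled. EC50 and maximal response (yFin) come from the lowest-AICc three- or four-parameter log-logistic fit.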

SUDIPGXVII [2] = diffuse intrinsic pontine glioma line; test: as above
Procedure, shortened: as §1

SUDIPGXIX [3] = diffuse intrinsic pontine glioma line; test: as above
Procedure, shortened: as §1

HGGX42 [4] = H3.3 G34R paediatric high-grade glioma line; test: as above
Procedure, shortened: as §1

DIPGX29 [5] = H3.3 K27M diffuse intrinsic pontine glioma line; test: as above
Procedure, shortened: as §1

SUDIPGVI [6] = diffuse intrinsic pontine glioma line; test: as above
Procedure, shortened: as §1

HGGX39 [7] = paediatric high-grade glioma line; test: as above
Procedure, shortened: as §1

HGGX6 [8] = H3.3 G34R paediatric high-grade glioma line; test: as above
Procedure, shortened: as §1

HABS [9] = astrocyte control; test: as above
Procedure, shortened: as §1

SUDIPGIV [10] = diffuse intrinsic pontine glioma line; test: as above
Procedure, shortened: as §1

DIPGX9 [11] = diffuse intrinsic pontine glioma line; test: as above
Procedure, shortened: as §1

SUDIPGXIII [12] = test: area under dose-response curve of % growth inhibition (log2 RLU vs DMSO / staurosporine), 1e-11 to 1e-4 M (% x log10 M); higher = more growth inhibition
Procedure, shortened: (§2)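 On 1% Geltrex-coated 384-well plates, patient-derived pHGG/DIPG cell lines and astrocytes were treated in triplicate across 10 threefold dilutions (mean top concentration 35 μM) for 7 days, with iAstro treated for 3 days, at 37 °C, 5% CO2. Log2-transformed CellTiter-Glo luminescence was normalised per plate to % activity between solvent and positive controls. Area under the curve was obtained by the trapezoid rule from a log-logistic fit, or from a smoothing spline when that fit failed.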

DIPGX37 [13] = H3.3 K27M diffuse intrinsic pontine glioma line; test: as above
Procedure, shortened: as §2

SUDIPGXVII [14] = test: as above
Procedure, shortened: as §2

iAstro = astrocyte control; test: as above
Procedure, shortened: as §2

SUDIPGXIX [15] = test: as above
Procedure, shortened: as §2

HGGX42 [16] = test: as above
Procedure, shortened: as §2

DIPGX7 [17] = H3.3 K27M diffuse intrinsic pontine glioma line; test: as above
Procedure, shortened: as §2

SUDIPGXXI = diffuse intrinsic pontine glioma line; test: as above
Procedure, shortened: as §2

DIPGX29 [18] = test: as above
Procedure, shortened: as §2

HGGX2 [19] = paediatric high-grade glioma line; test: as above
Procedure, shortened: as §2

SUDIPGVI [20] = test: as above
Procedure, shortened: as §2

HGGX39 [21] = test: as above
Procedure, shortened: as §2

HGGX6 [22] = test: as above
Procedure, shortened: as §2

HABS [23] = test: as above
Procedure, shortened: as §2

SUDIPGIV [24] = test: as above
Procedure, shortened: as §2

DIPGX9 [25] = test: as above
Procedure, shortened: as §2

SUDIPGXIII [26] = test: maximal growth inhibition (yFin) relative to DMSO / staurosporine; higher = more efficacious
Procedure, shortened: as §1

SUDIPGXVII [27] = test: as above
Procedure, shortened: as §1

SUDIPGXIX [28] = test: as above
Procedure, shortened: as §1

HGGX42 [29] = test: as above
Procedure, shortened: as §1

DIPGX29 [30] = test: as above
Procedure, shortened: as §1

SUDIPGVI [31] = test: as above
Procedure, shortened: as §1

HGGX39 [32] = test: as above
Procedure, shortened: as §1

HGGX6 [33] = test: as above
Procedure, shortened: as §1

HABS [34] = test: as above
Procedure, shortened: as §1

SUDIPGIV [35] = test: as above
Procedure, shortened: as §1

DIPGX9 [36] = test: as above
Procedure, shortened: as §1

DIPGX37 [37] = test: EC50 (inflection of fitted growth-inhibition curve) (log10 M)
Procedure, shortened: as §1

DIPGX7 [38] = test: as above
Procedure, shortened: as §1

DIPGX37 [39] = test: maximal growth inhibition (yFin) relative to DMSO / staurosporine; higher = more efficacious
Procedure, shortened: as §1

DIPGX7 [40] = test: as above
Procedure, shortened: as §1

HGGX2 [41] = test: EC50 (inflection of fitted growth-inhibition curve) (log10 M)
Procedure, shortened: as §1

HGGX2 [42] = test: maximal growth inhibition (yFin) relative to DMSO / staurosporine; higher = more efficacious
Procedure, shortened: as §1

Nc1ccc2ncnc(NCCc3ccc(Oc4ccccc4)cc3)c2c1 [EVP4593]
EC50 (log10 M) (SUDIPGXIII [1]): -8.11
EC50 (log10 M) (SUDIPGXVII [2]): -8.18
EC50 (log10 M) (SUDIPGXIX [3]): -7.71
EC50 (log10 M) (HGGX42 [4]): -7.84
EC50 (log10 M) (DIPGX29 [5]): -7.98
EC50 (log10 M) (SUDIPGVI [6]): -8.43
EC50 (log10 M) (HGGX39 [7]): -8.62
EC50 (log10 M) (HGGX6 [8]): -8.04
EC50 (log10 M) (HABS [9]): -7.75
EC50 (log10 M) (SUDIPGIV [10]): -7.95
EC50 (log10 M) (DIPGX9 [11]): -7.97
area under dose-response curve (SUDIPGXIII [12]): 348
area under dose-response curve (DIPGX37 [13]): 275
area under dose-response curve (SUDIPGXVII [14]): 171
area under dose-response curve (iAstro): 113
area under dose-response curve (SUDIPGXIX [15]): 178
area under dose-response curve (HGGX42 [16]): 173
area under dose-response curve (DIPGX7 [17]): 447
area under dose-response curve (SUDIPGXXI): 224
area under dose-response curve (DIPGX29 [18]): 179
area under dose-response curve (HGGX2 [19]): 71.8
area under dose-response curve (SUDIPGVI [20]): 242
area under dose-response curve (HGGX39 [21]): 216
area under dose-response curve (HGGX6 [22]): 156
area under dose-response curve (HABS [23]): 141
area under dose-response curve (SUDIPGIV [24]): 296
area under dose-response curve (DIPGX9 [25]): 183
maximal growth inhibition (SUDIPGXIII [26]): 84.8%
maximal growth inhibition (SUDIPGXVII [27]): 35.9%
maximal growth inhibition (SUDIPGXIX [28]): 47.8%
maximal growth inhibition (HGGX42 [29]): 44.9%
maximal growth inhibition (DIPGX29 [30]): 45.1%
maximal growth inhibition (SUDIPGVI [31]): 54.6%
maximal growth inhibition (HGGX39 [32]): 46.7%
maximal growth inhibition (HGGX6 [33]): 38.5%
maximal growth inhibition (HABS [34]): 37.7%
maximal growth inhibition (SUDIPGIV [35]): 74.9%
maximal growth inhibition (DIPGX9 [36]): 46.2%

CC(C)c1cc(-c2n[nH]c(=O)n2-c2ccc3c(ccn3C)c2)c(O)cc1O [GANETESPIB]
EC50 (log10 M) (SUDIPGXIII [1]): -7.84
EC50 (log10 M) (DIPGX37 [37]): -7.76
EC50 (log10 M) (SUDIPGXVII [2]): -7.92
EC50 (log10 M) (SUDIPGXIX [3]): -8.72
EC50 (log10 M) (DIPGX7 [38]): -6.1
EC50 (log10 M) (DIPGX29 [5]): -7.76
EC50 (log10 M) (SUDIPGVI [6]): -7.86
EC50 (log10 M) (HGGX39 [7]): -7.51
EC50 (log10 M) (HGGX6 [8]): -7.85
EC50 (log10 M) (HABS [9]): -7.9
EC50 (log10 M) (SUDIPGIV [10]): -8.08
EC50 (log10 M) (DIPGX9 [11]): -7.98
area under dose-response curve (SUDIPGXIII [12]): 215
area under dose-response curve (DIPGX37 [13]): 306
area under dose-response curve (SUDIPGXVII [14]): 242
area under dose-response curve (iAstro): 164
area under dose-response curve (SUDIPGXIX [15]): 395
area under dose-response curve (HGGX42 [16]): 226
area under dose-response curve (DIPGX7 [17]): 106
area under dose-response curve (SUDIPGXXI): 432
area under dose-response curve (DIPGX29 [18]): 195
area under dose-response curve (HGGX2 [19]): 257
area under dose-response curve (SUDIPGVI [20]): 158
area under dose-response curve (HGGX39 [21]): 271
area under dose-response curve (HGGX6 [22]): 153
area under dose-response curve (HABS [23]): 329
area under dose-response curve (SUDIPGIV [24]): 238
area under dose-response curve (DIPGX9 [25]): 440
maximal growth inhibition (SUDIPGXIII [26]): 56%
maximal growth inhibition (DIPGX37 [39]): 81.5%
maximal growth inhibition (SUDIPGXVII [27]): 61.6%
maximal growth inhibition (SUDIPGXIX [28]): 87.3%
maximal growth inhibition (DIPGX7 [40]): 44.1%
maximal growth inhibition (DIPGX29 [30]): 51.8%
maximal growth inhibition (SUDIPGVI [31]): 41.2%
maximal growth inhibition (HGGX39 [32]): 77.3%
maximal growth inhibition (HGGX6 [33]): 39.8%
maximal growth inhibition (HABS [34]): 84.5%
maximal growth inhibition (SUDIPGIV [35]): 58.4%
maximal growth inhibition (DIPGX9 [36]): 114%

N#CN=C(NCCCCCCOc1ccc(Cl)cc1)Nc1ccncc1 [GMX-1778]
EC50 (log10 M) (SUDIPGXIII [1]): -7.54
EC50 (log10 M) (DIPGX37 [37]): -8.03
EC50 (log10 M) (SUDIPGXVII [2]): -7.44
EC50 (log10 M) (SUDIPGXIX [3]): -7.5
EC50 (log10 M) (HGGX42 [4]): -7.48
EC50 (log10 M) (DIPGX7 [38]): -7.31
EC50 (log10 M) (HGGX2 [41]): -8.25
EC50 (log10 M) (SUDIPGVI [6]): -7.79
EC50 (log10 M) (HGGX39 [7]): -7.85
EC50 (log10 M) (HGGX6 [8]): -7.85
EC50 (log10 M) (HABS [9]): -7.62
EC50 (log10 M) (SUDIPGIV [10]): -7.21
EC50 (log10 M) (DIPGX9 [11]): -8.21
area under dose-response curve (SUDIPGXIII [12]): 335
area under dose-response curve (DIPGX37 [13]): 311
area under dose-response curve (SUDIPGXVII [14]): 245
area under dose-response curve (iAstro): 314
area under dose-response curve (SUDIPGXIX [15]): 444
area under dose-response curve (HGGX42 [16]): 315
area under dose-response curve (DIPGX7 [17]): 380
area under dose-response curve (SUDIPGXXI): 587
area under dose-response curve (DIPGX29 [18]): 465
area under dose-response curve (HGGX2 [19]): 426
area under dose-response curve (SUDIPGVI [20]): 354
area under dose-response curve (HGGX39 [21]): 287
area under dose-response curve (HGGX6 [22]): 288
area under dose-response curve (HABS [23]): 275
area under dose-response curve (SUDIPGIV [24]): 333
area under dose-response curve (DIPGX9 [25]): 267
maximal growth inhibition (SUDIPGXIII [26]): 94.5%
maximal growth inhibition (DIPGX37 [39]): 77.2%
maximal growth inhibition (SUDIPGXVII [27]): 71.3%
maximal growth inhibition (SUDIPGXIX [28]): 127%
maximal growth inhibition (HGGX42 [29]): 90.6%
maximal growth inhibition (DIPGX7 [40]): 114%
maximal growth inhibition (HGGX2 [42]): 103%
maximal growth inhibition (SUDIPGVI [31]): 93.6%
maximal growth inhibition (HGGX39 [32]): 74.6%
maximal growth inhibition (HGGX6 [33]): 74.7%
maximal growth inhibition (HABS [34]): 76%
maximal growth inhibition (SUDIPGIV [35]): 104%
maximal growth inhibition (DIPGX9 [36]): 63.3%
